The source of these data is US8420655B2, “Benzimidazole inhibitors of leukotriene production” (Boehringer Ingelheim International GmbH, priority 2009, dated 2013).

One assay relates to ApoE−/−xCD4dnTβRII mice.
Experiment: not given
Conditions: via infusion, treated for four weeks; cited from earlier work.
Regarding `CC(C)c1ccc2c(c1)c(SC(C)(C)C)c(CC(C)(C)C(=O)O)n2Cc1ccc(Cl)cc1` [MK-886], the “decrease in plaque area in the aortic root” value is listed as around 40%.

The next assay deals with apoE/LDL-R double knockout mice.
Experiment: not given
The conditions noted are these: oral dosing, high-fat diet from 2 months of age to 6 months; cited from earlier work.
For `CC(C)c1ccc2c(c1)c(SC(C)(C)C)c(CC(C)(C)C(=O)O)n2Cc1ccc(Cl)cc1` [MK-886], the “decrease in plaque coverage in the aorta” value is recorded as 56% and the “decrease in plaque coverage in the aortic root” value is 43%.

A further assay concerns apoE-deficient mice.
Experiment: not given
Conditions: cited from earlier work.
`C[C@H](C#Cc1ccc(Cc2ccc(F)cc2)s1)N(O)C(N)=O` [VIA-2291]: the effect on atherosclerosis entry was “attenuate atherosclerosis”.

Another assay concerns biomarkers for myocardial infarction risk.
Experiment: not given
The conditions noted are these: clinical trials; cited from earlier work.
For the molecule `O=C(O)[C@@H](c1ccc(OCc2ccc3ccccc3n2)cc1)C1CCCC1` [DG-031], the “effect on biomarkers for myocardial infarction risk” value is “dose-dependent suppression of several biomarkers”.

The target in the next assay is T1, recombinant human FLAP protein (Homo sapiens, UniProt P20292).
T1 construct: made in house; host or cells: Sf9 insect cells (membrane fraction, 100,000 x g pellet)
T1 sequence (P20292 1-161): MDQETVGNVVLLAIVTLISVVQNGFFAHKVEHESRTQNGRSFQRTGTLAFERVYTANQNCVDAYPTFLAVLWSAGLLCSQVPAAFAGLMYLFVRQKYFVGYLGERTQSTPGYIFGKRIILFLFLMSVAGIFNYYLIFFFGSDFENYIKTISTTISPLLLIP
As to the kind of experiment: FLAP binding assay, displacement of iodinated (125I) FLAP inhibitor, Scintillation Proximity Assay format. The conditions noted are these: [125I]L-691,831 probe, membrane protein from sf9 cells; read-out: hFLAP binding IC50. How it is done: Compounds are assessed for the ability to bind to FLAP in a binding assay that measures compound-specific displacement of an iodinated (^125I) FLAP inhibitor via a Scintillation Proximity Assay format (adapted from S. Charleson et al., Mol. Pharmacol., 1992, 41, 873-879).
Cell pellets produced from sf9 insect cells expressing recombinant human FLAP protein are resuspended in buffer A [15 mM Tris-HCl (pH 7.5), 2 mM MgCl2, 0.3 mM EDTA, 1 mM PMSF]. The cells are lysed with a Dounce homogenizer and the material is centrifuged at 10,000×g for 10 minutes. The supernatant is then collected and centrifuged at 100,000×g for 60 minutes. To prepare membrane protein for an assay, an aliquot of the 100,000×g pellet is resuspended in 1 ml of buffer A, Dounce homogenized, and finally subjected to polytron mixing (30 seconds). Membrane protein (25 μl, 5 μg) is mixed with WGA SPA beads (Amersham) and stirred for 1 h. To an assay plate (Perkin Elmer FlexiPlate) is added 25 μl of test compound prepared in Binding buffer [100 mM Tris (pH 7.5), 140 mM NaCl, 5% glycerol, 2 mM EDTA, 0.5 mM TCEP, 0.05% Tween 20], 25 μl of [^125I]L-691,831 (an iodinated analog of MK-591, Charleson et al. Mol. Pharmacol., 41, 873-879, 1992) and finally 50 μl of the bead/protein mixture. (final concentrations: beads, 200 μg/well; protein, 5 μg/well; [^125I] probe, 0 08 nM/well (17 nCi/well). The plates are shaken for 2 h before reading on a Microbeta plate reader. Non-specific binding is determined by the addition of 10 μM cold L-691,831 compound.
(SPA uses beads or plates that emit light when radiolabelled molecules are held near them.)
In the case of `CC(C)(C)n1c(-c2cc(OC3CCOC3)ccc2-n2cncn2)nc2cc(-c3cnc(N)nc3)ccc21` (centres unmarked) [5-{1-tert-Butyl-2-[5-(tetrahydro-furan-3-yloxy)-2-1,2,4-triazol-1-yl-phenyl]-1H-benzimidazol-5-yl}-pyrimidin-2-ylamine], the IC50 came out at 6.9 nM.

On to `Cn1ncnc1-c1ccc(Cl)cc1-c1nc2cc(-c3cnc(N)nc3)ccc2n1C(C)(C)C` [5-{1-tert-Butyl-2-[5-chloro-2-(2-methyl-2H-1,2,4-triazol-3-yl)-phenyl]-1H-benzimidazol-5-yl}-pyrimidin-2-ylamine], for which the IC50 worked out at 1.2 nM.

Regarding `Cc1noc(-c2ccc(Cl)cc2-c2nc3cc(-c4cnc(N)nc4)ccc3n2C(C)(C)C)n1` [5-{1-tert-Butyl-2-[5-chloro-2-(3-methyl-1,2,4-oxadiazol-5-yl)-phenyl]-1H-benzimidazol-5-yl}-pyrimidin-2-ylamine], the IC50 came out at 1.9 nM.

In the case of `Cc1ncn(-c2ccc(Cl)cc2-c2nc3cc(-c4cnc(N)nc4)ccc3n2C(C)(C)C)n1` [5-{1-tert-Butyl-2-[5-chloro-2-(3-methyl-1,2,4-triazol-1-yl)-phenyl]-1H-benzimidazol-5-yl}-pyrimidin-2-ylamine], the IC50 was determined as 1.4 nM.

As to `Cc1ccn(-c2ccc(Cl)cc2-c2nc3cc(-c4cnc(N)nc4)ccc3n2C(C)(C)C)n1` [5-{1-tert-Butyl-2-[5-chloro-2-(3-methyl-pyrazol-1-yl)-phenyl]-1H-benzimidazol-5-yl}-pyrimidin-2-ylamine], the IC50 was 0.71 nM.

Turning to `Cn1ncnc1-c1ccc(F)cc1-c1nc2cc(-c3cnc(N)nc3)ccc2n1C(C)(C)C` [5-{1-tert-Butyl-2-[5-fluoro-2-(2-methyl-2H-1,2,4-triazol-3-yl)-phenyl]-1H-benzimidazol-5-yl}-pyrimidin-2-ylamine], the IC50 came out at 1.6 nM.

As to `Cc1ncn(-c2ccc(F)cc2-c2nc3cc(-c4cnc(N)nc4)ccc3n2C(C)(C)C)n1` [5-{1-tert-Butyl-2-[5-fluoro-2-(3-methyl-1,2,4-triazol-1-yl)-phenyl]-1H-benzimidazol-5-yl}-pyrimidin-2-ylamine], the IC50 is 1.4 nM.

As for `COc1ccc(-c2csc(C)n2)c(-c2nc3cc(-c4cnc(N)nc4)ccc3n2C(C)(C)C)c1` [5-{1-tert-Butyl-2-[5-methoxy-2-(2-methyl-thiazol-4-yl)-phenyl]-1H-benzimidazol-5-yl}-pyrimidin-2-ylamine], the IC50 amounted to 1.7 nM.

As for `COc1ccc(-c2nc(C)no2)c(-c2nc3cc(-c4cnc(N)nc4)ccc3n2C(C)(C)C)c1` [5-{1-tert-Butyl-2-[5-methoxy-2-(3-methyl-1,2,4-oxadiazol-5-yl)-phenyl]-1H-benzimidazol-5-yl}-pyrimidin-2-ylamine], the IC50 amounted to 24 nM.

For `COc1ccc(-c2nc(C)ns2)c(-c2nc3cc(-c4cnc(N)nc4)ccc3n2C(C)(C)C)c1` [5-{1-tert-Butyl-2-[5-methoxy-2-(3-methyl-1,2,4-thiadiazol-5-yl)-phenyl]-1H-benzimidazol-5-yl}-pyrimidin-2-ylamine], the IC50 worked out at 4.3 nM.

As to `COc1ccc(-n2cnc(C)n2)c(-c2nc3cc(-c4cnc(N)nc4)ccc3n2C(C)(C)C)c1` [5-{1-tert-Butyl-2-[5-methoxy-2-(3-methyl-1,2,4-triazol-1-yl)-phenyl]-1H-benzimidazol-5-yl}-pyrimidin-2-ylamine], the IC50 is 2.2 nM.

Consider `COc1ccc(-n2ccc(C)n2)c(-c2nc3cc(-c4cnc(N)nc4)ccc3n2C(C)(C)C)c1` [5-{1-tert-Butyl-2-[5-methoxy-2-(3-methyl-pyrazol-1-yl)-phenyl]-1H-benzimidazol-5-yl}-pyrimidin-2-ylamine], for which the IC50 stood at 8.8 nM.

For the molecule `COc1ccc(-n2ncnc2C)c(-c2nc3cc(-c4cnc(N)nc4)ccc3n2C(C)(C)C)c1` [5-{1-tert-Butyl-2-[5-methoxy-2-(5-methyl-1,2,4-triazol-1-yl)-phenyl]-1H-benzimidazol-5-yl}-pyrimidin-2-ylamine], the IC50 came out at 1.5 nM.

As to `Cc1ccc(-c2nc(C)no2)c(-c2nc3cc(-c4cnc(N)nc4)ccc3n2C(C)(C)C)c1` [5-{1-tert-Butyl-2-[5-methyl-2-(3-methyl-1,2,4-oxadiazol-5-yl)-phenyl]-1H-benzimidazol-5-yl}-pyrimidin-2-ylamine], the IC50 stood at 1.8 nM.

`Cc1ncnn1-c1ccc(Cl)cc1-c1nc2cc(-c3cnc(N)nc3)ccc2n1C(C)(C)C` [5-{1-tert-butyl-2-[5-chloro-2-(5-methyl-1,2,4-triazol-1-yl)-phenyl]-1H-benzimidazol-5-yl}-pyrimidin-2-ylamine]: the IC50 is 6.9 nM.

For the molecule `CC(C)(C)n1c(-c2ccccc2-c2ncn(CC#N)n2)nc2cc(-c3cnc(N)nc3)ccc21` [(3-{2-[5-(2-Amino-pyrimidin-5-yl)-1-tert-butyl-1H-benzoimidazol-2-yl]-phenyl}-[1,2,4]triazol-1-yl)-acetonitrile], the IC50 stood at 4.2 nM.

In the case of `CCCCC/C(=C\C(=O)OC)c1ccc(-n2cncn2)c(-c2nc3cc(-c4cnc(N)nc4)ccc3n2C(C)(C)C)c1` [(E)-3-{3-[5-(2-Amino-pyrimidin-5-yl)-1-tert-butyl-1H-benzoimidazol-2-yl]-4-[1,2,4]triazol-1-yl-phenyl}-oct-2-enoic acid methyl ester], the IC50 was 28 nM.

Consider `CCCCC/C(=C\C(=O)O)c1ccc(-n2cncn2)c(-c2nc3cc(-c4cnc(N)nc4)ccc3n2C(C)(C)C)c1` [(E)-3-{3-[5-(2-Amino-pyrimidin-5-yl)-1-tert-butyl-1H-benzoimidazol-2-yl]-4-[1,2,4]triazol-1-yl-phenyl}-oct-2-enoic acid], for which the IC50 stood at 6 nM.

For the molecule `CCN(CC)C(=O)Oc1ccc(-n2cncn2)c(-c2nc3cc(-c4cnc(N)nc4)ccc3n2C(C)(C)C)c1` [Diethyl-carbamic acid 3-[5-(2-amino-pyrimidin-5-yl)-1-tert-butyl-1H-benzimidazol-2-yl]-4-1,2,4-triazol-1-yl-phenyl ester], the IC50 is 8.8 nM.

With `CN(C)C(=O)Oc1ccc(-n2cncn2)c(-c2nc3cc(-c4cnc(N)nc4)ccc3n2C(C)(C)C)c1` [Dimethyl-carbamic acid 3-[5-(2-amino-pyrimidin-5-yl)-1-tert-butyl-1H-benzimidazol-2-yl]-4-1,2,4-triazol-1-yl-phenyl ester], the IC50 was 15.5 nM.

As for `CCNC(=O)Oc1ccc(-n2cncn2)c(-c2nc3cc(-c4cnc(N)nc4)ccc3n2C(C)(C)C)c1` [Ethyl-carbamic acid 3-[5-(2-amino-pyrimidin-5-yl)-1-tert-butyl-1H-benzimidazol-2-yl]-4-1,2,4-triazol-1-yl-phenyl ester], the IC50 was determined as 1.1 nM.

In the case of `CC(C)NC(=O)Oc1ccc(-n2cncn2)c(-c2nc3cc(-c4cnc(N)nc4)ccc3n2C(C)(C)C)c1` [Isopropyl-carbamic acid 3-[5-(2-amino-pyrimidin-5-yl)-1-tert-butyl-1H-benzimidazol-2-yl]-4-1,2,4-triazol-1-yl-phenyl ester], the IC50 turned out to be 1.5 nM.

As for `CC(C)(C)n1c(-c2cc(CO)ccc2-n2cncn2)nc2cc(-c3cnc(N)nc3)ccc21` [{3-[5-(2-Amino-pyrimidin-5-yl)-1-tert-butyl-1H-benzoimidazol-2-yl]-4-[1,2,4]triazol-1-yl-phenyl}-methanol], the IC50 amounted to 10.4 nM.

The next assay relates to human glomerulonephritis.
Experiment: not given
The conditions noted are these: clinical trial; cited from earlier work.
With `CC(C)(C)Sc1c(CC(C)(C)C(=O)O)n(Cc2ccc(Cl)cc2)c2ccc(OCc3ccc4ccccc4n3)cc12` [MK-591], the effect on proteinuria result is given as “reduce proteinuria”.

By IC50 is commonly meant the concentration that gives 50% inhibition.
